# Data published in ChEMBL document CHEMBL1144256, “Potent Kv1.3 inhibitors from correolide-modification of the C18 position” (Bioorg Med Chem Lett, 2005).
# pIC50: −log10 of the molar value.
# Target: Potassium voltage-gated channel subfamily A member 3 (Homo sapiens, UniProt P22001)
# Assay: Inhibitory activity against voltage-gated potassium channel subunit Kv1.3
# Format: functional
# Potassium voltage-gated channel subfamily A member 3, sequence (P22001 whole entry): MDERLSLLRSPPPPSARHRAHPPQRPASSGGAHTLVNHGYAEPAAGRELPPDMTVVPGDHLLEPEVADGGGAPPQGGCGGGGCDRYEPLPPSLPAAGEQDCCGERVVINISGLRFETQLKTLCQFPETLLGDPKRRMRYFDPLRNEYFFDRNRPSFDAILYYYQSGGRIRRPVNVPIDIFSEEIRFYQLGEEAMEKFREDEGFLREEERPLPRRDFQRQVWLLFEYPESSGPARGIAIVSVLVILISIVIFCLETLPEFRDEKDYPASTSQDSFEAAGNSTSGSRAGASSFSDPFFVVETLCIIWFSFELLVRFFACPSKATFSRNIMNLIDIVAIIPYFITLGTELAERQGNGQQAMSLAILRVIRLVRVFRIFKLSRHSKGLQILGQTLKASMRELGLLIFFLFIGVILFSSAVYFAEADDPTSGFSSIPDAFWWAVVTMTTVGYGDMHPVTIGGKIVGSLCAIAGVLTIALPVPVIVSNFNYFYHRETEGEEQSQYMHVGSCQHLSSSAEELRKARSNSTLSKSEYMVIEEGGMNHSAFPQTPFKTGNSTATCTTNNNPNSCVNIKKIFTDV
structure (smiles),measurement,value
C=C1C[C@@]2(O)C3CC[C@]4(C)C([C@H](OC(C)=O)[C@H](OC(C)=O)[C@@]5([C@@H](C)OC(C)=O)COCC=CC45)[C@@]3(C)[C@H](OC(C)=O)[C@H](OC(C)=O)[C@@]2(C)C2(C(=O)OC)O[C@H]12 (stereo partly specified),pIC50,8.00
